This is an account of results in US9803180B2, “S-adenosylmethionine (SAM) synthase variants for the synthesis of artificial cofactors” (LEIBNIZ-INSTITUT FUR PFLANZENBIOCHEMIE STIFTUNG DES …, priority 2013, dated 2017).

Common to all, as to assay type: biochemical
Data set [1] is described as follows: Time course of formation of SAM and SAM derivatives, analyzed by HPTLC. The conditions noted are these: racemic amino acid 10 mM, enzyme 10 mU ml^−1; in words. How it is done:
FIGS. 4A-4C show the formation of SAM and SAM derivatives by the SAM synthase enzyme from Bacillus subtilis (FIG. 4A) or its variants I317V (FIG. 4B) and I317A (FIG. 4C). The conversion of the L-enantiomer of methionine (closed circles), ethionine (hatched circles), S-n-propylhomocysteine (open triangles) and S-n-butylhomocysteine (closed triangles) from the corresponding racemic amino acid (10 mM) was performed in the presence of equal amounts of enzyme (10 mU ml^−1). The reactions were analyzed by HPTLC.
The suitability of the wild-type protein and of variants with appropriate substrate specificity (I317V and I317A) for the synthesis of SAM and analogues was evaluated by high-performance thin-layer chromatography. Since the enzymes were not inhibited by the D-enantiomer of the amino acid substrates, methionine and its derivatives could be advantageously applied as racemic mixture of its stereoisomeres in these reactions. […] Accordingly, transformation of methionine and ethionine by SAMS-I317V in preparative synthetic reactions led to high conversion rates for the amino acid substrates. The syntheses were performed similar to the kinetic experiments but in larger scale (200 μmol). After prolonged incubation (18 hours) to reach maximum product yield, 84 and 89% of the L-amino acid was converted. […]

A short description of data set [2]: Substrate spectrum: conversion of methionine and S-alkylhomocysteine derivatives by SAM synthase and variants. The following applies: for substrate acceptance (which amino acid substrates are converted): in words. From the text: (§1) FIGS. 3A-3E show the rates of conversion of amino acid substrates catalyzed by the SAMS enzyme from Bacillus subtilis (FIG. 3A) and its variants I317V (FIG. 3B), I317A (FIG. 3C), I105V/I317A (FIG. 3D) or I105A/I317A (FIG. 3E) as a function of the substrate concentration. The reaction with L-methionine (open circles), D,L-methionine (closed circles), D,L-methionine-(methyl-D3) (x), D,L-ethionine (hatched circles), S-n-propyl-D,L-homocysteine (open triangles), S-n-butyl-D,L-homocysteine (closed triangles) or S-(2-methylvinyl)-D,L-homocysteine (diamonds) was assessed by spectrophotometric determination of phosphate which is released from the co-substrate ATP during the reaction.
For these studies, a series of S-alkylhomocysteines with linear (D,L-methionine-(methyl-D3), -ethionine, -propionine and -buthionine), branched (D,L-isopropionine and -isobuthionines), unsaturated (D,L-methylvinylhomocysteine) and functionalized (D,L-hydroxyethionine and -carboxymethionine) alkyl groups were synthesized from D,L-homocysteine thiolactone and tested for conversion by the cloned (wildtype) SAM synthase.
As derived from a homology model which is based on the crystal structure of the protein from E. coli (PDB code 1XRA), a hydrophobic cleft formed from two conserved isoleucine residues hinders the generation of cofactor analogues from amino acid substrates with bulky alkyl residues (FIG. 2). Accordingly, both residues were exchanged against less voluminous amino acids by site-directed mutagenesis.
To further probe the role of the proximate isoleucine residue I105 in substrate recognition, the variants I105V/I317A and I105A/I317A were generated. […] Compared to the wild-type enzyme (FIG. 3A), substrate specificity of the variant I105A/I317A (FIG. 3E) is inverted (S-n-propylhomocysteine>S-n-butylhomocysteine>ethionine>>methionine).

The nature of data set [3]: Kinetic parameters for the conversion of S-alkylhomocysteines; standard SAM synthase assay, photometric detection of the cleaved phosphate.
Source text: as §1
The kinetic parameters for the conversion of S-alkylhomocysteines by Bacillus subtitlis SAM synthase and its variants as shown in Table 1 were calculated from the conversion rates of methionine and analogues as a function of the substrate concentration […] which were determined by the standard SAM synthase assay known in the art, i.e. by photometric detection of the cleaved phosphate.

A short description of data set [4]: Preparative synthetic reactions (200 μmol): conversion of the L-amino acid. The conditions noted are these: for L-amino acid converted: 18 hours, 200 μmol scale; for conversion: 8 hours. As to the method:
The suitability of the wild-type protein and of variants with appropriate substrate specificity (I317V and I317A) for the synthesis of SAM and analogues was evaluated by high-performance thin-layer chromatography. Since the enzymes were not inhibited by the D-enantiomer of the amino acid substrates, methionine and its derivatives could be advantageously applied as racemic mixture of its stereoisomeres in these reactions. […] Accordingly, transformation of methionine and ethionine by SAMS-I317V in preparative synthetic reactions led to high conversion rates for the amino acid substrates. The syntheses were performed similar to the kinetic experiments but in larger scale (200 μmol). After prolonged incubation (18 hours) to reach maximum product yield, 84 and 89% of the L-amino acid was converted. In the production of the n-propyl- and n-butyl analogues of SAM by the variant I317A, 43% and 28% of conversion could be reached after 8 hours of reaction time. After product purification by cation exchange chromatography on SP-Sephadex C-25, SAM and its homologs could be recovered in final yields of 25, 17, 8 and 11%, respectively. As proven by ^1H NMR, the enzymatically produced SAM contained a high excess (≧90%) of the biologically active (S,S)-epimer.

Data set [5] can be described thus: Activity of further position 317 SAM synthase variants (Example 4). From the text: The influence of position 317 on catalytic turnover and its crucial role in determination of substrate spectrum was additionally confirmed by introduction of other small- and medium-sized amino acid residues.
Where [6] appears, read: substrate D,L-methionine-(methyl-D3).
The mark [7] stands for this setting: substrate S-n-butyl-D,L-homocysteine.
Setting [8] is: substrate S-n-propyl-D,L-homocysteine.
Where [9] appears, read: substrate S-(2-methylvinyl)-D,L-homocysteine.

“Also recorded” adds a separate entry of the source.

Turning to “Wild-type: wildtype Bacillus subtilis S-Adenosylmethionine (SAM) synthase, SEQ ID NO: 1, recombinantly expressed in E. coli BL21 (DE3) [reference compound]”, in data set [1], the “product inhibition by SAM” value is listed as “inhibited by its product SAM”. In data set [2], the “substrate acceptance (which amino acid substrates are converted)” value (from here on “substrate acceptance”) is “did not accept any of these methionine derivatives”. In addition, in data set [3] (FIG. 3A, in words), the “inhibition by the D-enantiomer of methionine” value is given as “not inhibited by the D-enantiomer of methionine”. The S0.5 came out at 1.92 ± 0.12 mM in data set [3] (substrate D,L-methionine), 1.86 ± 0.07 mM in data set [3] (setting [6]) and 1.04 ± 0.14 mM in data set [3] (substrate L-methionine). The figures for the maximal velocity (Vmax) in data set [3] (substrate D,L-methionine), in data set [3] (setting [6]) and in data set [3] (substrate L-methionine) were 90.8 ± 1.6 nmol/min/mg, 79.8 ± 2.3 nmol/min/mg and 93.2 ± 3.1 nmol/min/mg, respectively. Also, the h is 1.7 ± 0.2 in data set [3] (substrate D,L-methionine), 2.2 ± 0.2 in data set [3] (setting [6]) and 1.1 ± 0.1 in data set [3] (substrate L-methionine).

In the case of “I317V: I317V SAM synthase variant (SEQ ID NO: 3) of Bacillus subtilis SAM synthase”, the “substrate acceptance” value in data set [2] is listed as “also converts ethionine”. In addition, the L-amino acid converted was found to be 89% in data set [4] (ethionine) and 84% in data set [4] (methionine). For the same substance, the figures for the S0.5 in data set [3] (substrate D,L-ethionine), in data set [3] (substrate D,L-methionine) and in data set [3] (substrate L-methionine) were 10.94 ± 2.70 mM, 1.71 ± 0.12 mM and 0.72 ± 0.04 mM, respectively. In addition, the Vmax in data set [3] (substrate D,L-ethionine) was determined as 51.2 ± 9.1 nmol/min/mg; in data set [3] (substrate D,L-methionine), 446.2 ± 13.8 nmol/min/mg; in data set [3] (substrate L-methionine), 408.0 ± 7.7 nmol/min/mg. For the same substance, the h was found to be 1.3 ± 0.1 in data set [3] (substrate D,L-ethionine), 1.3 ± 0.1 in data set [3] (substrate D,L-methionine) and 1.2 ± 0.1 in data set [3] (substrate L-methionine).

“I105V/I317A: I105V/I317A SAM synthase variant (SEQ ID NO: 6)”: the “substrate acceptance” value in data set [2] is listed as “prefer long-chain substrates”. Further, the S0.5 in data set [3] (substrate D,L-ethionine) is given as 4.25 ± 0.20 mM; in data set [3] (substrate D,L-methionine) it was 3.77 ± 1.02 mM; in data set [3] (setting [7]), 4.20 ± 0.41 mM; in data set [3] (setting [8]) it was 1.86 ± 0.41 mM. Besides, the maximal velocity (Vmax) in data set [3] (substrate D,L-ethionine) was 5.7 ± 0.3 nmol/min/mg; in data set [3] (substrate D,L-methionine), 17.0 ± 2.0 nmol/min/mg; in data set [3] (setting [7]), 11.9 ± 0.9 nmol/min/mg; in data set [3] (setting [8]), 17.7 ± 1.5 nmol/min/mg. Further, the h in data set [3] (substrate D,L-ethionine) was 4.6 ± 0.8; in data set [3] (substrate D,L-methionine), 1.0 ± 0.1; in data set [3] (setting [7]), 2.0 ± 0.2; in data set [3] (setting [8]) it was 1.0 ± 0.1.

With “I317C: Bacillus subtilis SAM synthase with position 317 substituted by cysteine; tolerably active enzyme”, the “activity (conversion)” value worked out at 6.0 ± 0.3 nmol/min/mg in data set [5] (5 mM D,L-buthionine), 16.4 ± 0.7 nmol/min/mg in data set [5] (5 mM D,L-ethionine), 59.4 ± 0.4 nmol/min/mg in data set [5] (5 mM D,L-methionine) and 8.4 ± 0.3 nmol/min/mg in data set [5] (5 mM D,L-propionine).

As for “I317A: I317A SAM synthase variant (SEQ ID NO: 2) of Bacillus subtilis SAM synthase”, the “product inhibition by SAM” value in data set [1] was “much less affected by product inhibition; also recorded: less pronounced”. The “substrate acceptance” value in data set [2] was “active on ethionine, propionine, buthionine and the unsaturated D,L-methylvinylhomocysteine”. The conversion in data set [4] (production of n-butyl analogue of SAM) worked out at 28%; in data set [4] (production of n-propyl analogue of SAM), 43%. Also, the S0.5 in data set [3] (substrate D,L-ethionine) amounted to 2.99 ± 0.23 mM; in data set [3] (substrate D,L-methionine), 0.92 ± 0.05 mM; in data set [3] (substrate L-methionine), 0.46 ± 0.02 mM; in data set [3] (setting [9]), 0.79 ± 0.04 mM; in data set [3] (setting [7]), 3.56 ± 0.45 mM; in data set [3] (setting [8]) it was 0.90 ± 0.05 mM. Further, the Vmax came out at 44.1 ± 1.6 nmol/min/mg in data set [3] (substrate D,L-ethionine); 37.7 ± 0.8 nmol/min/mg in data set [3] (substrate D,L-methionine); 34.8 ± 0.5 nmol/min/mg in data set [3] (substrate L-methionine); 22.4 ± 0.4 nmol/min/mg in data set [3] (setting [9]); 35.4 ± 2.6 nmol/min/mg in data set [3] (setting [7]); 34.2 ± 0.7 nmol/min/mg in data set [3] (setting [8]). Moreover, the h in data set [3] (substrate D,L-ethionine) is given as 1.2 ± 0.1; in data set [3] (substrate D,L-methionine) it was 1.1 ± 0.1; in data set [3] (substrate L-methionine) it was 1.3 ± 0.1; in data set [3] (setting [9]), 1.2 ± 0.1; in data set [3] (setting [7]), 1.4 ± 0.1; in data set [3] (setting [8]), 1.1 ± 0.1.

Consider “I105A/I317A: I105A/I317A SAM synthase variant (SEQ ID NO: 4)”, for which the “substrate specificity (rank order)” value in data set [2] (FIG. 3E, compared to wild-type) was “S-n-propylhomocysteine>S-n-butylhomocysteine>ethionine>>methionine”. For the same substance, the “substrate acceptance” value in data set [2] is on record as “acceptance of the artificial long-chain substrates only; also recorded: prefer long-chain substrates”. Besides, the S0.5 is on record as 3.91 ± 0.27 mM in data set [3] (substrate D,L-ethionine), “=10.0 mM” in data set [3] (setting [7]) and “=10.0 mM” in data set [3] (setting [8]). For the same substance, the Vmax is 3.0 ± 1.8 nmol/min/mg in data set [3] (substrate D,L-ethionine), 0.8 ± 0.2 nmol/min/mg in data set [3] (substrate D,L-methionine), “=4.0 ± 0.2 nmol min^-1 mg^-1” in data set [3] (setting [7]) and “=10.8 ± 0.1 nmol min^-1 mg^-1” in data set [3] (setting [8]). In addition, the h in data set [3] (substrate D,L-ethionine) worked out at 2.9 ± 0.4; in data set [3] (setting [7]) it was 0.8 ± 0.1; in data set [3] (setting [8]) it was 1.0 ± 0.1.

As usually defined, the Vmax is the rate approached at saturating substrate.
